Values quoted from earlier work, collected in patent US9468651B1, “Method of removing moles” (priority 2009, dated 2016).

Conditions: property of the ingredient stated with a literature reference (Merck Index; Concise Encyclopedia of Chemical Technology)

[K+].[OH-] [Potassium hydroxide]
PH value: 13.5
